Reference: patent publication US20260209305A1, “THERAPEUTIC EXPLOITATION OF STING CHANNEL ACTIVITY” (The Broad Institute Inc., priority 2022, published 2026)

What was measured:
[1] = tested on: NLRP3 inflammasome; test: Inflammasome activation and IL-1ß release in primary human monocytes; format: cell-based
[2] = tested on: STING; test: RFP-LC3 induction and pSTING by FACS in HEK293T cells expressing STING WT or H50R; format: cell-based, human; details: mutant vs WT STING, FIP200 KO 293T cells, agonist stimulation
Experimental: FACS based genome-wide CRISPR screen and mutagenesis screen: FIP200 KO 293T cells were generated by transfecting 293T cells with pXPR_023 (Addgene #52961), encoding Cas9 and an sgRNA against FIP200 and selecting cells with 2 μg/ml puromycin (Thermo Fisher Scientific #A1113803) for two days. FIP200 KO 293T cells were then transduced with pTRIP-PGK-Hygro-P2A-RFP-LC3, treated with 33 μg/ml hygromycin (Invivogen, #ant-hg-1) for 3 days, and then sorted to get a homogenous RFP+ population.
Mutagenesis screen: RFP-LC3 FIP200 KO 293T cells were infected with saturated mutagenesis library lentivirus at MOI=0.2, and selected with 20 μg/ml blasticidin for 2 days. 150M transduced cells were treated with diABZI for 1.5 hr, and then permeabilized with 1× perm buffer (PBS with 0.05% saponin and 0.1% glycine) for 4 min. Permed cells are then washed with 1×PBS, and fix, perm, and stained using BD Cytofix/Cytoperm kit and anti-pSTING Alexa647 (CST, #43499) at 1:100 dilution.
A sorting strategy similar to the genome-wide CRISPR screen was followed, sorting populations of LC3− and LC3+ HEK293T cells within the pSTING+ cell population (FIG. 3E), thus ensuring that the sorted cell mutants enabled expression of functional STING able to translocate to Golgi/endosomes where phosphorylation of STING occurs (Dobbs et al. 2015). […]
Target sequence in this assay (Q86WV6 153-340 limits assumed): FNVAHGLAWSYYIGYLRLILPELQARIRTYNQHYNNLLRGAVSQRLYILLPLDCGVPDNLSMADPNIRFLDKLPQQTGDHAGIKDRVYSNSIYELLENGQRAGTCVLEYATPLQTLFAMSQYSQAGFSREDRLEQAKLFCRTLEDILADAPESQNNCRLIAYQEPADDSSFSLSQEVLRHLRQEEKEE

[3] = molecular target: T1, STING (Homo sapiens, UniProt Q86WV6); test: STING-induced autophagy: LC3 lipidation, RFP-LC3 imaging in FIP200 KO 293T cells and western blot in BJ1 cells; format: cell-based; design: expressed in transfected cells; host or cells: FIP200 KO 293T cells, lentiviral transduction; details: 1 hour; for LC3 lipidation upon agonist treatment: 20 ug/ml cGAMP, 40 μM MSA2 or 1 μM diABZI
Experimental: Cells were then fixed with 2% Paraformaldehyde (Electron Microscopy Sciences) in PHEM buffer (Electron Microscopy Sciences) for 30 minutes at 37° C., washed three times with PBS and quenched with freshly prepared 0.1M Glycine for 10 minutes. Coverslips were then permeabilized and blocked with 1× perm/stain buffer (10% goat serum (Thermo Fisher) in PBS, 0.5% BSA (Seracare), 0.05% Saponin from quillaja barka (Sigma)) for 30 minutes. […] Coverslips were then washed 5 times, mounted with Fuoromont-G, with DAPI (Thermo Fisher) and dried at 37° C. for one hour. Images were acquired on Olympus. Images were acquired on an Olympus IX83 using an Olympus UApo 40× objective controlled by Fluoview software.
Western Blotting: BJ1 cells were seeded at 0.15 million cells/well density in a 24 well plate the night before stimulation. […] Cells were then harvested and lysed in 100 ul of 1×SDS sample buffer (Boston Bio, #BP111NR).
Cells were segmented by thresholding the DAPI signal to identify nuclei and expanding the resulting regions using the seeded watershed method. Cells were segmented based on background in the Lysosensor, LC3B-RFP, and NLRP3 mNeonGreen channels. For the live-cell imaging and NLRP3 stimulation experiments, background was subtracted using the rolling ball algorithm. Puncta or Golgi structures enhanced using a Laplacian of Gaussian filter with sigma=12 (live-cell), sigma=8 (NLRP3), or sigma=7 (LC3B).

[4] = tested on: NLRP3; test: NLRP3-mNeongreen reporter: NLRP3 puncta in 293T cells expressing STING-HA; format: cell-based, human; details: 1 μM diABZI, 1 hour
[5] = molecular target: T1, STING; test: Organelle pH measurement (Lysosensor) after STING activation in BJ1 cells; format: cell-based; details: human fibroblasts (BJ1), 1 μM diABZI, 1 hr
Experimental: Organelle pH Measurements and Image Acquisition: hTERT-immortalized BJ1 cells (ATCC CRL-2522) were plated in 24-well glass-bottom plates (Greiner Bio-One). After 24 hours, cells were stained for 30 minutes at 37° C. with 5 μM Lysosensor (Thermo Fisher Scientific cat #L7535), […] Hoechst (Thermo Fisher Scientific, cat. #62249), and 1 μM Bodipy TR Ceramide (Thermo Fisher Scientific cat #B34400) for Golgi labeling or 100 nM Lysotracker Deep Red (Thermo Fisher Scientific cat #L12492) for endolysosome labeling in Phenol-free DMEM medium with 10% FBS and 1% Pen-Strep. Cells were then washed five times with Phenol-free DMEM medium and stimulated with 1 μM DIABZI for 1 hr with or without the addition of 10 μM C53. […] An LED light engine (Lumencor CELESTA Light Engine) was used for fluorescence illumination and all hardware was controlled using NIS elements software. […]
Given the necessity of both the STING transmembrane domain and its translocation for autophagy induction, it was investigated whether the entire STING protein could cause ion leakage by either inducing membrane damage resulting in a secondary ion imbalance or by directly acting as an ion channel. […] The possibility that STING directly behaves as a channel for proton release into the cytosol upon translocation to the Golgi was assessed, the Golgi being an acidic compartment (Linders et al. 2022). […]

[6] = tested on: STING; test: p-STING and LC3B lipidation immunoblot in 293T cells expressing WT STING, STING AQQA or TMEM192-STING-LBD; format: cell-based, human; details: 293T cells expressing the STING construct
Experimental: Genes that are essential for mediating STING-induced autophagy were systematically identify, with a special interest in identifying potential transporters responsible for ion leakage. […] A genome-wide CRISPR fluorescence-activated cell sorting (FACS) screen was carried out using HEK293T cells expressing RFP-LC3 and STING-HA with FIP200 knocked out in order to reduce background signal from basal autophagy. Following transduction with the sgRNA library, cells were stimulated with diABZI to induce STING activation and STING-HA+ cells were sorted into LC3− and LC3+ bins (FIG. 1A) to specifically identify genes that altered CASM activation without affecting STING activation. […] The STING itself may have mediated Golgi/endosomes proton leakage critical for subsequent assembly of V-ATPase and recruitment of ATG16L1 to initiate CASM (Xu et al. 2019). In order to assess this, whether the STING ligand-binding domain (LBD), which has been proposed to recruit LC3 through its LR motifs (Gui et al. 2019; Liu et al. 2019), could induce autophagy upon translocation to Golgi/endosomes was first tested. Autophagy induction was tested in 293T cells by WT STING, a STING oligomerization-deficient mutant (A277Q/Q273A STING, termed AQQA), and an endolysosome-localized STING fusion protein (the endolysosomal protein TMEM192 fused with the STING LBD) upon agonist stimulation. […]

T1 sequence (Q86WV6 whole entry): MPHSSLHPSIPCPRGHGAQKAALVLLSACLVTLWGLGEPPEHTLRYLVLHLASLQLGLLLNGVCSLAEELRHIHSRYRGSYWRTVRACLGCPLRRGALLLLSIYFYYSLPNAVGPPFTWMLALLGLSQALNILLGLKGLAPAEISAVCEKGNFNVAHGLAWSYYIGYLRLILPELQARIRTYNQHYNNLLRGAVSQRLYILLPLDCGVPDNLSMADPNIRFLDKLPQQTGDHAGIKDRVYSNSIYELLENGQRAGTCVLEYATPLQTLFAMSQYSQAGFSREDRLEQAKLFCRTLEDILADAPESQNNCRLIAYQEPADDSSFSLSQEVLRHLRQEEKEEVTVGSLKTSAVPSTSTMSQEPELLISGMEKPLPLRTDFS

cyclic GMP-AMP [cGAMP]
IL-1ß release upon STING agonist stimulation [1]: induced

STING H50R: human STING polypeptide with H50R substitution in TM2, inside the pore area
LC3 induction within pSTING+ cells (STING-induced autophagy) [2]: reduced
LC3 induction within pSTING+ cells (STING-induced autophagy) ([2]; listed as H50R): strongly inhibit

CCn1nc(C)cc1C(=O)Nc1nc2cc(C(N)=O)cc(OC)c2n1C/C=C/Cn1c(NC(=O)c2cc(C)nn2CC)nc2cc(C(N)=O)cc(OCCCN3CCOCC3)c21 [diABZI]
LC3 lipidation upon agonist treatment [3]: LC3 lipidation was induced
NLRP3 translocation upon stimulation [4]: NLRP3 translocated from the cytoplasm to perinuclear vesicles
IL-1ß release upon STING agonist stimulation [1]: induced
fluorescence within the endolysosomal compartment [5]: only modestly altered
pH within the Golgi apparatus (decreased fluorescence of Lysosensor Green dye) [5]: significant increase in pH

CO[C@@H]1C[C@@H](C[C@H]2CC[C@H](C)[C@H]([C@@H](C)C(=O)O)O2)O[C@]2(O[C@](C)([C@H]3CC[C@@](C)([C@@H]4O[C@@H]([C@H]5O[C@@](O)(CO)[C@H](C)C[C@@H]5C)C[C@@H]4C)O3)C[C@H]2C)[C@@H]1C [Nigericin]
LC3 lipidation by independent ionophore stimulus ([3]; BJ1 cells, 2 μM Nigericin): induction of LC3 lipidation

AQQA: STING oligomerization-deficient mutant (A277Q/Q273A STING)
autophagy induction (LC3B lipidation) upon agonist stimulation [6]: impaired LC3B lipidation

COc1cc2cc(C(=O)CCC(=O)O)sc2cc1OC [MSA2]
LC3 lipidation upon agonist treatment [3]: LC3 lipidation was induced
